Test results published in patent US20250360138A1 (priority 2022, published 2025).
pEC50: −log10 of the molar value. Entries after “also recorded” stand apart in the source; their conditions may differ. Like-named read-outs stand apart in the source and are kept apart here.

Assays:
HEK293T = assay: Mammalian cytotoxicity counter screen, luminescent ATP viability assay; format: cell-based, human; settings: toxicity in mammalian cell cultures versus G. lamblia GS-clone 7 trophozoites
Experimental: Mammalian cytotoxicity assays. Mammalian cell lines were used for counter screening for general cytotoxicity of hit compounds from the primary screen: human embryonic kidney cells (HEK293T; ATCC CRL-3216) was used in a luminescent ATP assay for detection of cell viability.
Data analysis. Relative luminescence units (RLU) values were analyzed in Genedata Screener (v13.0-Standard). RLU was normalized to neutral controls minus inhibitors (DMSO-treated wells minus metronidazole-treated wells). For single-point primary assay plates, an additional run-wise median correction was applied to reduce screen artifacts, whereas no corrections were applied to triplicate dose response plates. For the mammalian cytotoxicity assays, RLU was uploaded into Genedata Screener, and the data was normalized to DMSO-treated wells minus puromycin-treated wells.

[1] = tested on: G. lamblia GS-clone H7 trophozoites; assay: G. lamblia GS-clone H7 trophozoite growth, ATP-based bioluminescence (BacTiter-Glo) primary screen and dose response; format: cell-based; settings: read-out: Anti-Giardia EC50
[2] = tested on: G. lamblia WB6 (Assemblage A); assay: Cell growth inhibition against G. lamblia WB6; format: cell-based, Giardia lamblia
Experimental: (§1) Giardia lamblia culture. G. lamblia WB6 strain, G. lamblia CBG99 strain, metronidazole-resistant strain 713-M3 and G. lamblia (Lambl) Alexeieff trophozoites (GS-clone H7; ATCC 50581) used for the primary screening were maintained in modified TYI-S-33 medium (ATCC 2695) and assayed as earlier described (Keister, 1983, Trans R Soc Trop Med Hyg 77: 487-488). Subsequent assays, including the mouse model of infection, used the G. lamblia click beetle green (CBG99) strain which was grown and assayed as previously described (Michaels et al., 2020, J Antimicrob Chemother 75:1218-1227; and Keister, 1983, Trans R Soc Trop Med Hyg 77:487-488).

[3] = tested on: metronidazole resistant 713-M3 strain; assay: Cell growth inhibition against metronidazole resistant 713-M3 strain; format: cell-based, Giardia lamblia
Experimental: as §1

[4] = Resazurin-based viability assay, CRL-8155; format: cell-based; settings: human, CRL-8155 lymphocytic cells; CRL-8155 cells
Experimental: (§2) Experimental details for the assays were earlier described (Love et al., 2017, PLoS Negl Trop Dis 11:e0005373). Compounds in the follow-up assays were also tested for the inhibition of CRL-8155 (human lymphocytic cells and human hepatocellular carcinoma cells (HepG2; ATCC HB-8065) in a resazurin-based viability assay as indicators of potential host cell toxicity. Assays were performed as previously reported (Vidadala et al., 2014, Eur J Med Chem 74:562-57).

[5] = Resazurin-based viability assay, HepG2; format: cell-based; settings: human, HepG2 hepatocellular carcinoma cells
Experimental: as §2

G. lamblia CBG99 = assay: Luciferase reporter acute murine Giardia infection model, whole animal IVIS imaging; format: in vivo, Giardia lamblia
Text: The method relies on a stable constitutive luciferase reporter, CBG99 (Click beetle green), that correlates with parasite load in vitro and in vivo. […] Only mice with confirmed infections are used in experiments.
All animal experiments were approved by the Institutional Animal Care and Use Committees at the University of Washington.
The method relies on a stable constitutive reporter, CBG99, that correlates with total parasite load.

[6] = Mouse pharmacokinetics, plasma concentration by LC-MS/MS; format: in vivo; settings: for half-life: read-out: average half-life (t1/2); for Cmax: mouse plasma
Experimental: Methods for pharmacokinetic studies and analysis of mouse plasma compound concentrations by liquid chromatography with tandem mass spectrometry (LC-MS/MS) have previously been described (Hulverson et al., 2017, J Infect Dis 215:1275-1284; Ojo et al., 2012, J Clin Invest 122:2301-2305; and Schaefer et al., 2016, J Infect Dis 214:1856-1864). The pK studies was performed in groups of 3 mice per compound. […] Blood samples collected at intervals between 0.5 and 24 hours were separated and extracted with acetonitrile for measurement of compound concentrations by combined liquid chromatography-electrospray mass spectrometry (LC/ES-MS).

[7] = Clinical evaluation of overall health of mice in PK and efficacy studies; format: in vivo
[8] = Mouse pharmacokinetics, plasma concentration by LC-MS/MS; format: in vivo; settings: infected mice, all treatment groups, days 6 and 7 post-infection (24 and 48 hours after first dose)
[9] = adult humans, daily oral doses over 7 days; cited from earlier work
[10] = G. lamblia GS-clone H7 (Assemblage B) trophozoites, 48 hours, dose response

Question: With `CS(=O)(=O)Nc1ccc(C(=O)O[C@@H](Cc2c(Cl)c[n+]([O-])cc2Cl)c2ccc(OC(F)F)c(OCC3CC3)c2)cc1OCC1CC1` [CHF-6001] as the molecule, how does the “Selectivity index (SI), CC50/EC50” value (HEK293T) read?
Answer: > 12

Question: With `C=CC(=O)N[C@H]1CN(c2nc(Nc3cn(C)nc3OC)c3ncn(C)c3n2)C[C@@H]1F` [Mavelertinib] as the molecule, how does the pEC50 ([1]; Giardia duodenalis, 48 h) read?
Answer: 5.63

Question: And the pEC50 ([2]; Giardia duodenalis)?
Answer: 6.57

Question: What about the pEC50 ([3]; Giardia duodenalis) of the same molecule?
Answer: 7.15

Question: What about the CC50 [4] of the same molecule?
Answer: > 80 µM

Question: And the CC50 [5]?
Answer: > 80 µM

Question: What about the clearance of infection (G. lamblia CBG99; IFN-γ-knockout mice, 1 mg/kg QD×4 days (days 6-9 p.i.), 1 mg/kg) of the same molecule?
Answer: None of the 1 mg/kg QD×4 days mice were relieved of their infection; also recorded: did not clear the infection after 4 doses

Question: What about the “efficacy in the acute murine Giardia infection model” value (G. lamblia CBG99; dosed as low as 5 mg/kg or as high as 50 mg/kg) of the same molecule?
Answer: efficacious; also recorded: effectively clears Giardia infection

Question: And the clearance of infection (G. lamblia CBG99; mice, 2.5 mg/kg QD×2 days)?
Answer: one of four mice remained infected

Question: What about the “clearance of infection (luminescence signal)” value (G. lamblia CBG99; mice, 5 mg/kg QD×2 days, 5 mg/kg) of the same molecule?
Answer: cleared the infection below the background signal; also recorded: absence of luminescence signal

Question: What about the “clearance of infection (luminescence signal)” value (G. lamblia CBG99; mice, 20 mg/kg QD×2 days, 20 mg/kg) of the same molecule?
Answer: cleared the infection below the background signal; also recorded: absence of luminescence signal

Question: What about the clearance of infection (G. lamblia CBG99; mice, 50 mg/kg QD for 3 days, oral) of the same molecule?
Answer: appeared to clear the infection

Question: What about the “clearance of infection (luminescence signal)” value (G. lamblia CBG99; mice, 50 mg/kg QD×1 day, 50 mg/kg) of the same molecule?
Answer: cleared the infection below the background signal; also recorded: absence of luminescence signal

Question: And the “parasite rebound after treatment” value (G. lamblia CBG99; mice, one week after the last therapeutic dose)?
Answer: parasites did not rebound

Question: And the clearance of infection (G. lamblia CBG99; mice, one- and two-day dosing of 50 mg/kg QD)?
Answer: all treated mice were cleared of infection and remained clear a week after dosing

Question: And the half-life ([6]; in vivo, mouse, single oral 5 mg/kg)?
Answer: 3.99 h

Question: And the Cmax ([6]; single oral 5 mg/kg)?
Answer: 0.63 µM

Question: What about the Cmax ([6]; single oral 20 mg/kg) of the same molecule?
Answer: 3.5 µM

Question: What about the Cmax ([6]; single oral 50 mg/kg) of the same molecule?
Answer: 9.3 µM

Question: And the plasma level ([6]; mouse, 1 mg/kg QD, 1 mg/kg)?
Answer: barely detectable in the plasma of one mouse at 0.5 hours post dose and below the limit of detection at all subsequent time points

Question: And the “plasma concentration at 24 h post dose” value ([6]; mouse, all dosage groups, single dose)?
Answer: cleared from plasma by 24 hours; also recorded: below the detection limit

Question: What about the AUC ([6]; mouse, single oral 5 mg/kg) of the same molecule?
Answer: 89 µmol·min/L

Question: What about the Clearance ([6]; mouse, single oral 5 mg/kg) of the same molecule?
Answer: 0.015 L/min

Question: And the AUC ([6]; mouse, single oral 20 mg/kg)?
Answer: 300 µmol·min/L

Question: What about the Clearance ([6]; mouse, single oral 20 mg/kg) of the same molecule?
Answer: 0.004 L/min

Question: And the AUC ([6]; mouse, single oral 50 mg/kg)?
Answer: 812 µmol·min/L

Question: And the Clearance ([6]; mouse, single oral 50 mg/kg)?
Answer: 0.0016 L/min

Question: And the Tmax ([6]; plasma, oral, mouse, all doses)?
Answer: 0.5 h

Question: And the half-life ([6]; plasma, mouse, single oral 20 mg/kg)?
Answer: 2.91 h

Question: And the half-life ([6]; plasma, mouse, single oral 50 mg/kg)?
Answer: 2.09 h

Question: And the “signs of toxicity in mice” value [7]?
Answer: no sign of toxicity; also recorded: no observable mavelertinib induced toxicology potentials

Question: What about the plasma trough levels [8] of the same molecule?
Answer: below the limit of quantitation

Question: What about the “daily oral dose causing diarrhea and skin toxicities as most common adverse events” value [9] of the same molecule?
Answer: > 150 mg

Question: With `CS(=O)(=O)OCCN(CCBr)c1c(C(=O)NCCOP(=O)(O)O)cc([N+](=O)[O-])cc1[N+](=O)[O-]` [PR-104] as the molecule, how does the pEC50 [1, 10] read?
Answer: 5.70

Question: What does the source list for `CCN(CC)CCn1c(=O)c(Cc2ccc(OC)cc2)nc2ccccc21` [caroverine]?
Answer: pEC50 ([1]; Giardia duodenalis, G. lamblia GS-clone H7 (Assemblage B) trophozoites, 48 hours, dose response): 4.86; Selectivity index (SI), CC50/EC50 (HEK293T): > 2

Question: Which clearance of infection (G. lamblia CBG99; mice, 20 mg/kg QD×3 days) does the source give for `Cc1ncc([N+](=O)[O-])n1CCO` [metronidazole] here?
Answer: remained infected after treatment

Question: Which results are given for `CC(=O)C[C@H]1CCCCN1` [pelletierine]?
Answer: pEC50 [1, 10]: 4.69; pEC50 [2]: < 4.60; pEC50 ([3]; metronidazole resistant 713-M3, read-out: EC50): < 4.60

Question: With `CCCN(CCC)c1ccc(N=Nc2ccccc2C(=O)O)cc1` [propyl red] as the molecule, how does the pEC50 [1, 10] read?
Answer: 5.24
